The supplement of paper PMC11208160

Test: recombinant barcode read abundance after kanamycin selection (control-corrected) (log10(CPM+1)); higher = more efficient recombination; sequences stand for … in AGTGCAGAGAAAATCGGCCAGTTTTCTCTGCCTGCAGTCCGCATGCCGT…AGATTTATGCAGCGGACTGCCTTTCTCCCAAAGTGATAAACCGGACAGTATCATGGACCGGTTTTCCCGGTAATCCGTATTTGCAAGGTTGGTTTCACT; site = the 11-nt target
In short: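 Recombination efficiency comes from barcode counts at recombinant junctions, converted to counts per million, averaged and corrected against the control. Values appear as log10(CPM+1). They were obtained from a pooled E. coli screen in which each oligo paired a target with an IS621 bridge RNA target-binding loop, and cells were plated in duplicate on chloramphenicol/ampicillin LB agar or on chloramphenicol/ampicillin/kanamycin with 0.1 mM IPTG.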
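Further: IS621 recombinase and bridge RNA in Escherichia coli cells.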

Row | Sequence | recombinant barcode read abundance (log10)
1 | AGGTGCCCTTGGGTTCTAACCTGTTGCCG (site AAGTGCTCTCG) | 0.235
2 | AGGTGCCCTTGGGTTCTAACCTGTTGCCG (site AGGTGCCCTCG) | 1.15
3 | AGGTGTTCTTGGGTTCTAACCTGTTGCCT (site AGGTGTTCTAG) | 0.716
4 | AGGTGTTCTTGGGTTCTAACCTGTTGCCT (site ATGCGTTCTAG) | 0.018
5 | AGTAAGACTTGGGTTCTAACCTGTTGCCT (site AGTAAGACTAA) | 0.132
6 | AGTAAGACTTGGGTTCTAACCTGTTGCCT (site AGTAAGACTAC) | 0.16
7 | AGTAAGACTTGGGTTCTAACCTGTTGCCT (site AGTAAGACTAG) | 1.69
8 | AGTAAGACTTGGGTTCTAACCTGTTGCCT (site AGTAAGACTAT) | 0.2
9 | AGTAAGACTTGGGTTCTAACCTGTTGCTA (site ACTAAGACTCA) | 0.154
10 | AGTAAGACTTGGGTTCTAACCTGTTGCTA (site AGTAAGACTTA) | 1.23
11 | AGTAAGTCTTGGGTTCTAACCTGTTGCCT (site AATAAGTCTAG) | 0.0805
12 | AGTAAGTCTTGGGTTCTAACCTGTTGCCT (site ACTAAGTCTAG) | 0.186
13 | AGTAAGTCTTGGGTTCTAACCTGTTGCCT (site AGTAAGTCTAG) | 0.61
14 | AGTAAGTCTTGGGTTCTAACCTGTTGCCT (site ATTAAGTCTAG) | 0.0108
15 | AGTAATTCTTGGGTTCTAACCTGTTGCCT (site AGAAATTCTAG) | 0.0418
16 | AGTAATTCTTGGGTTCTAACCTGTTGCCT (site AGCAATTCTAG) | 0.0536
17 | AGTAATTCTTGGGTTCTAACCTGTTGCCT (site AGGAATTCTAG) | 0.0166
18 | AGTAATTCTTGGGTTCTAACCTGTTGCCT (site AGTAATTCTAG) | 0.454

Row | Sequence | recombinant barcode read abundance (log10)
19 | AGTACCTCTTGGGTTCTAACCTGTTGCCT (site AATACCTCTAG) | 0.192
20 | AGTACCTCTTGGGTTCTAACCTGTTGCCT (site ACTACCTCTAG) | 0.283
21 | AGTACCTCTTGGGTTCTAACCTGTTGCCT (site AGTACCTCTAG) | 0.941
22 | AGTACCTCTTGGGTTCTAACCTGTTGCCT (site ATTACCTCTAG) | 0.0826
23 | AGTAGACCTTGGGTTCTAACCTGTTGCTT (site AGTAGACCTAA) | 0.828
24 | AGTAGACCTTGGGTTCTAACCTGTTGCTT (site AGTATACCTCA) | 0.0353
25 | AGTATACCTTGGGTTCTAACCTGTTGCTG (site AGTAGACCTAA) | 0.178
26 | AGTATACCTTGGGTTCTAACCTGTTGCTG (site AGTATACCTCA) | 1.31
27 | AGTCAGACTTGGGTTCTAACCTGTTGCAC (site AGTCAGACTGT) | 1.19
28 | AGTCAGACTTGGGTTCTAACCTGTTGCAC (site CTAAGCGCTAG) | 0.396
29 | AGTCAGCCTTGGGTTCTAACCTGTTGCCT (site AGTAAGCCTAG) | 0.0129
30 | AGTCAGCCTTGGGTTCTAACCTGTTGCCT (site AGTCAGCCTAG) | 0.749
31 | AGTCAGCCTTGGGTTCTAACCTGTTGCCT (site AGTGAGCCTAG) | 0.318
32 | AGTCAGCCTTGGGTTCTAACCTGTTGCCT (site AGTTAGCCTAG) | 0.133
33 | AGTCAGTCTTGGGTTCTAACCTGTTGCCA (site AGTCAGTCTTG) | 0.0748
34 | AGTCAGTCTTGGGTTCTAACCTGTTGCCA (site AGTTAGTCTTG) | 0.121
35 | AGTCATACTTGGGTTCTAACCTGTTGCAT (site AGTCATACTAT) | 0.356
36 | AGTCATACTTGGGTTCTAACCTGTTGCAT (site AGTCATCCTAG) | 0.0486
